Data taken from ChEMBL document CHEMBL3991601, “The target landscape of clinical kinase drugs” (Science, 2017).
The source made the active and inactive calls.

Tests used:
Septin-9 = biological target: T1, Septin-9 (Homo sapiens, UniProt Q9UHD8)
T1 sequence (Q9UHD8 whole entry): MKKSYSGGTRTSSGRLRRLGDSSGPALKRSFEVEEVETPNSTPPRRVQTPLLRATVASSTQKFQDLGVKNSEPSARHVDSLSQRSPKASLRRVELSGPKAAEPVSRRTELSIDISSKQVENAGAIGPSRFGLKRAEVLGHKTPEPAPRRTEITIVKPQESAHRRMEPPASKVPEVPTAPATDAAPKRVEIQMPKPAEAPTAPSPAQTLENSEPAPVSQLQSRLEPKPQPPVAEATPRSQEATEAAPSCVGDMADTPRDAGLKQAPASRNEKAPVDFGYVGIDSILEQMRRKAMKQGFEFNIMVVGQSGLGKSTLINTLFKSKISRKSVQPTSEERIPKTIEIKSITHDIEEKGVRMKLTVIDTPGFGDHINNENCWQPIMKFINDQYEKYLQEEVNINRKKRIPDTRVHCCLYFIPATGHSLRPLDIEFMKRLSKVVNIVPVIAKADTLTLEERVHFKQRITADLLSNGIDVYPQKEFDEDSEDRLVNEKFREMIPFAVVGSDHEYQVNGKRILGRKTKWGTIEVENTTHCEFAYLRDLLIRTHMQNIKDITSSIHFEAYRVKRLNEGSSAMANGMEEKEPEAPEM

[1] = biological target: T2, Ras-related protein Rab-27A (Homo sapiens, UniProt P51159)
T2 sequence (P51159 whole entry): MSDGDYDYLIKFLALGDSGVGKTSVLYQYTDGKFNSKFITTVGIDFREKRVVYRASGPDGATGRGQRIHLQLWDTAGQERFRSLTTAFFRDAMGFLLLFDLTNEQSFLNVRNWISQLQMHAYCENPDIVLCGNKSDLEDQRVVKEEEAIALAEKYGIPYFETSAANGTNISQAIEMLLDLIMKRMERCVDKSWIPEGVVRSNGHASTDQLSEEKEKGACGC

[2] = biological target: T3, Ras-related protein Rab-10 (Homo sapiens, UniProt P61026)
T3 sequence (P61026 whole entry): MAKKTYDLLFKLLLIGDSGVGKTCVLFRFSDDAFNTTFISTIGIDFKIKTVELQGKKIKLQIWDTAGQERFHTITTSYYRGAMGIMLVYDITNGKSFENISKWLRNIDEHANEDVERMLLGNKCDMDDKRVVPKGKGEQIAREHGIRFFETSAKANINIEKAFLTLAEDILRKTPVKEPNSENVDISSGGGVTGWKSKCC

[3] = biological target: T4, Serine/threonine-protein kinase ULK1 (Homo sapiens, UniProt O75385)
T4 sequence (O75385 whole entry): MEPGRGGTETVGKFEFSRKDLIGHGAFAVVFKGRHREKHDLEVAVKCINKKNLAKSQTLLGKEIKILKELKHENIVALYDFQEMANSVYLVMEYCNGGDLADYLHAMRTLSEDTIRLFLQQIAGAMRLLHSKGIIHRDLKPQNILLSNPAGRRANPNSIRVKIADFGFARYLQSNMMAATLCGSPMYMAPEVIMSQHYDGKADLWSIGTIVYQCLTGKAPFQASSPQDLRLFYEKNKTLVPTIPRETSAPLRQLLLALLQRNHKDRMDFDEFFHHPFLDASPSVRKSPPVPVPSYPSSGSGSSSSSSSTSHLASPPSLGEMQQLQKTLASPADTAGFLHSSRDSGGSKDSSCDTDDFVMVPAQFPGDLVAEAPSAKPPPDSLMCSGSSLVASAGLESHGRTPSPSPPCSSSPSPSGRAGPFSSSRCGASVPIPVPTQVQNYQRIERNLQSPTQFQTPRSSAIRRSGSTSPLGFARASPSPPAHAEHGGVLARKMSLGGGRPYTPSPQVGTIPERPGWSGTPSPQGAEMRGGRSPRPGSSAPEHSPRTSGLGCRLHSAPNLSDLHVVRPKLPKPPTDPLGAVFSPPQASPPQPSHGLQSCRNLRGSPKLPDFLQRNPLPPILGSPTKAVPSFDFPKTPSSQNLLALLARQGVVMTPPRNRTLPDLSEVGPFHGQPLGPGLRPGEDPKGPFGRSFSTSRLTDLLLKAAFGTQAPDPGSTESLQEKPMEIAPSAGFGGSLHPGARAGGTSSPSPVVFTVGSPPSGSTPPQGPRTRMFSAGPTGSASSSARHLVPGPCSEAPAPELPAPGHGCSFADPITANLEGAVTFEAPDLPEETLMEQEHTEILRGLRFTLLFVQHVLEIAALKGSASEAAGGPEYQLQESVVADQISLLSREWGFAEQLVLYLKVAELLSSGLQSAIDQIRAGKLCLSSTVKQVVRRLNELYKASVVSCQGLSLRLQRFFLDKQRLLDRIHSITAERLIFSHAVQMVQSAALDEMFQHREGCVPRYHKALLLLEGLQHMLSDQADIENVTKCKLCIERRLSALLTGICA

[4] = biological target: Serine/threonine-protein kinase B-raf (Homo sapiens, UniProt P15056)
Chain of Serine/threonine-protein kinase B-raf (P15056 whole entry): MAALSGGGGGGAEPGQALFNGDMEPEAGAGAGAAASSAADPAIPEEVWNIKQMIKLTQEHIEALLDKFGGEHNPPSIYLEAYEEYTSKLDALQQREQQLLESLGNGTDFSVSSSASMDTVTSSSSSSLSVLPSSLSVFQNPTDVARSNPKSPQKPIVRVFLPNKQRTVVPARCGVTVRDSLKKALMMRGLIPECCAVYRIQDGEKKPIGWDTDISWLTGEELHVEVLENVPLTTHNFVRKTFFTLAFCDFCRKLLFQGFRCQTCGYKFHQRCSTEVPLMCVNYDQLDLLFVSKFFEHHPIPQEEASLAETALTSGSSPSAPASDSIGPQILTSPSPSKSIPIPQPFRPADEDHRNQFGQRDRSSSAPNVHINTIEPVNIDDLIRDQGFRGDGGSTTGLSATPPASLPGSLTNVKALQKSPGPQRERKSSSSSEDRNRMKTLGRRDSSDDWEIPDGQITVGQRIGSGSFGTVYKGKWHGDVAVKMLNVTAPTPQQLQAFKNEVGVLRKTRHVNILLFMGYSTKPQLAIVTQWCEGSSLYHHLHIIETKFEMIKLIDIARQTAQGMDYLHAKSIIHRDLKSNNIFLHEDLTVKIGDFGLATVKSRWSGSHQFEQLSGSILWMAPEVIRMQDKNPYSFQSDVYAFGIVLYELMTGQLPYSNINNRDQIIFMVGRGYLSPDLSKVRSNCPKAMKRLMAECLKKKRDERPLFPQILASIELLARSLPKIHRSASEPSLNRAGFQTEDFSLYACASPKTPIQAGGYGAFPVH

[5] = biological target: GTP-binding nuclear protein Ran (Homo sapiens, UniProt P62826)
[6] = biological target: Macrophage-stimulating protein receptor (Homo sapiens, UniProt Q04912)
Chain of Macrophage-stimulating protein receptor (Q04912 25-304 limits assumed): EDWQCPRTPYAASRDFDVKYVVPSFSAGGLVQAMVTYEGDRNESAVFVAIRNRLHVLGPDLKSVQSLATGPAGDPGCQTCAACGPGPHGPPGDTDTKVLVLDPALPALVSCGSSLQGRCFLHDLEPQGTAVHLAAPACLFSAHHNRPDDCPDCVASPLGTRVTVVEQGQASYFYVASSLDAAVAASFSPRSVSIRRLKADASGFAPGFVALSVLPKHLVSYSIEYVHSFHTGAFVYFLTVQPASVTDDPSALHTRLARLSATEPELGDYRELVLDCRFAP
Chain of Macrophage-stimulating protein receptor (Q04912 310-1400 limits assumed): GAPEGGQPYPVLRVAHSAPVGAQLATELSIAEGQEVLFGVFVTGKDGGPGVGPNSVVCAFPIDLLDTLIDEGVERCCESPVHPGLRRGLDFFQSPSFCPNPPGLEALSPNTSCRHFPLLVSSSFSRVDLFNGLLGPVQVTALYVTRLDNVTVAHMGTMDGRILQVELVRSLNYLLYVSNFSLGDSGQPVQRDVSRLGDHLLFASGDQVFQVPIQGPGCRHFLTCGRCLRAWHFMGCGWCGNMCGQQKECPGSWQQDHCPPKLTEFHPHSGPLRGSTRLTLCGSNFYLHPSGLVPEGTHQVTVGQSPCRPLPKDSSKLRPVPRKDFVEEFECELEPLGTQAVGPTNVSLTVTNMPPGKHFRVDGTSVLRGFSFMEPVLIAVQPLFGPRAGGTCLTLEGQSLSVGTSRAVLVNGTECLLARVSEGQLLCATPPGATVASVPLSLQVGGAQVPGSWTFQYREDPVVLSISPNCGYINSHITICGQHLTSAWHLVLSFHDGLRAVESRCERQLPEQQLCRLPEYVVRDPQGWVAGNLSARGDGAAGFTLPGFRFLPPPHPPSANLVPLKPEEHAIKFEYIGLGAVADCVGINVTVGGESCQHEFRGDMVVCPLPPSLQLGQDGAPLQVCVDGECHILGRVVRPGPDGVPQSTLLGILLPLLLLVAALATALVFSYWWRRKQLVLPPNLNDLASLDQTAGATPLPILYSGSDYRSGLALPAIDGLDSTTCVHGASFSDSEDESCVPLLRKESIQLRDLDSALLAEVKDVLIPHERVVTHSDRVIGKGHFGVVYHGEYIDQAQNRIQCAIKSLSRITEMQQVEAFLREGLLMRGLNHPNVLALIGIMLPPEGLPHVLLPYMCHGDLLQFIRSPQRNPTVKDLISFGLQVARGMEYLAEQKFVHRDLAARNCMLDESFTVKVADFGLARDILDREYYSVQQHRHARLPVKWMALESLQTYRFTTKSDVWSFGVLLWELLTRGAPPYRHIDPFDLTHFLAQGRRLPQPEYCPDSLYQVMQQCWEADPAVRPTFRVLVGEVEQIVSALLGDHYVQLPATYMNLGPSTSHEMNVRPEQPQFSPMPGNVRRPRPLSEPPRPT

[7] = biological target: Mitogen-activated protein kinase 9 (Homo sapiens, UniProt P45984)
Chain of Mitogen-activated protein kinase 9 (P45984 whole entry): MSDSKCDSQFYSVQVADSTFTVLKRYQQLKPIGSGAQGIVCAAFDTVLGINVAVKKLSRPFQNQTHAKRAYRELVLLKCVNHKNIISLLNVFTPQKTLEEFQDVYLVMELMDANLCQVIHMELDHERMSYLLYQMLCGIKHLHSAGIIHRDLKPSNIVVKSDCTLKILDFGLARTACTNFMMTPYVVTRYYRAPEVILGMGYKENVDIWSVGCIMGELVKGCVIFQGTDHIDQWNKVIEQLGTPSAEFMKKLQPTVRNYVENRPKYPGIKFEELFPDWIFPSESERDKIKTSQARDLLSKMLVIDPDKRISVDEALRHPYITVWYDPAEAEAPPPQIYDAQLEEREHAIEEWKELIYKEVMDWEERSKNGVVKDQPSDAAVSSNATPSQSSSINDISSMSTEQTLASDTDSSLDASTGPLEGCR

[8] = biological target: Tyrosine-protein kinase Fyn (Homo sapiens, UniProt P06241)
Chain of Tyrosine-protein kinase Fyn (P06241 whole entry): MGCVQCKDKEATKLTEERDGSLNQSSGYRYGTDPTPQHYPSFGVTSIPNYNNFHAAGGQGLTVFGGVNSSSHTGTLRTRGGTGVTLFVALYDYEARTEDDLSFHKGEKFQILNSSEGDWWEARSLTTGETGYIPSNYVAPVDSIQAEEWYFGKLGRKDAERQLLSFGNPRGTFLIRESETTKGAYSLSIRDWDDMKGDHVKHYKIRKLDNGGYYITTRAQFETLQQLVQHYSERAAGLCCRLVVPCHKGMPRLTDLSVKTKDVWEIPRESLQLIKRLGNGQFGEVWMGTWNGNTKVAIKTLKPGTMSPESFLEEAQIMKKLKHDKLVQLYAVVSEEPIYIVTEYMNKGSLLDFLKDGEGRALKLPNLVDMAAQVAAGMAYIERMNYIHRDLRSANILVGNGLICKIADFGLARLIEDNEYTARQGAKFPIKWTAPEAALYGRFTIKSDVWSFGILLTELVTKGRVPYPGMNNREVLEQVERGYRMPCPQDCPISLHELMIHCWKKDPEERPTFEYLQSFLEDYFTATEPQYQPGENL
Note: in the data inactive means no Kd found up to 30 µM.

Row | Structure (SMILES) | Kd (Septin-9) | Kd [1] | Kd [2] | Kd [3] | Kd [4] | Kd [5] | Kd [6] | Kd [7] | Kd [8]
1 | C=CCn1c(=O)c2cnc(Nc3ccc(N4CCN(C)CC4)cc3)nc2n1-c1cccc(C(C)(C)O)n1 [ADAVOSERTIB] | > 30 µM (inactive) | > 30 µM (inactive) | > 30 µM (inactive) | > 30 µM (inactive) | > 30 µM (inactive) | > 30 µM (inactive) |  |  | 
2 | CN(C)C/C=C/C(=O)Nc1cc2c(Nc3ccc(F)c(Cl)c3)ncnc2cc1O[C@H]1CCOC1 [AFATINIB] | > 30 µM (inactive) | > 30 µM (inactive) | > 30 µM (inactive) |  |  | > 30 µM (inactive) |  |  | 
3 | CCN(CCCOc1ccc2c(Nc3cc(CC(=O)Nc4cccc(F)c4)n[nH]3)ncnc2c1)CCOP(=O)(O)O [BARASERTIB] | > 30 µM (inactive) |  | > 30 µM (inactive) | > 30 µM (inactive) | > 30 µM (inactive) | > 30 µM (inactive) |  |  | 
4 | C[C@@]1(C(=O)Nc2ccc(F)nc2)CCCN1c1nc(Nc2cc(C3CC3)n[nH]2)c2cccn2n1 [BMS-754807] | > 30 µM (inactive) | > 30 µM (inactive) | > 30 µM (inactive) |  |  | > 30 µM (inactive) |  |  | 
5 | CCOc1ccn(-c2ccc(F)cc2)c(=O)c1C(=O)Nc1ccc(Oc2ccnc(N)c2Cl)c(F)c1 [BMS-777607] | > 30 µM (inactive) | > 30 µM (inactive) |  | > 30 µM (inactive) |  | > 30 µM (inactive) | > 30 µM (inactive) | > 30 µM (inactive) | > 30 µM (inactive)
6 | COc1cc2c(Oc3ccc4[nH]c(C)cc4c3F)ncnc2cc1OCCCN1CCCC1 [CEDIRANIB] | > 30 µM (inactive) | > 30 µM (inactive) | > 30 µM (inactive) |  |  | > 30 µM (inactive) |  |  | > 30 µM (inactive)
7 | Cn1c(=O)n(-c2ccc(C(C)(C)C#N)cc2)c2c3cc(-c4cnc5ccccc5c4)ccc3ncc21 [DACTOLISIB] | > 30 µM (inactive) | > 30 µM (inactive) | > 30 µM (inactive) | > 30 µM (inactive) | > 30 µM (inactive) | > 30 µM (inactive) |  |  | 
8 | O=S(=O)(c1cccc2cnccc12)N1CCCNCC1 [FASUDIL] | > 30 µM (inactive) | > 30 µM (inactive) | > 30 µM (inactive) |  | > 30 µM (inactive) |  |  |  | > 30 µM (inactive)
9 | O=S(=O)(c1cccc2c(O)nccc12)N1CCCNCC1 [HYDROXYFASUDIL] | > 30 µM (inactive) | > 30 µM (inactive) | > 30 µM (inactive) | 23.3 µM (active) |  | > 30 µM (inactive) | > 30 µM (inactive) | > 30 µM (inactive) | > 30 µM (inactive)
10 | COc1cc2ncnc3c2cc1OCCCCCN(C)Cc1ccc(Br)cc1N3 [JNJ-26483327] | > 30 µM (inactive) | > 30 µM (inactive) | > 30 µM (inactive) | > 30 µM (inactive) |  | > 30 µM (inactive) | > 30 µM (inactive) | > 30 µM (inactive) | > 30 µM (inactive)
11 | C[C@]1(O)C[C@@H](c2nc(-c3ccc4ccc(-c5ccccc5)nc4c3)c3c(N)nccn32)C1 [LINSITINIB] | > 30 µM (inactive) | > 30 µM (inactive) | > 30 µM (inactive) | > 30 µM (inactive) | > 30 µM (inactive) | > 30 µM (inactive) |  |  | 
12 | Cc1ccc(C(=O)Nc2ccc(Oc3cc4cnn(C)c4cc3-c3cn[nH]c3)c(F)c2)c(=O)n1-c1ccc(F)cc1 [MERESTINIB] | > 30 µM (inactive) | > 30 µM (inactive) | > 30 µM (inactive) | > 30 µM (inactive) |  | > 30 µM (inactive) | 0.232 µM | > 30 µM (inactive) | > 30 µM (inactive)
13 | O=C(NOC[C@H](O)CO)c1ccc(F)c(F)c1Nc1ccc(I)cc1F [MIRDAMETINIB] | > 30 µM (inactive) | > 30 µM (inactive) | > 30 µM (inactive) | > 30 µM (inactive) |  | > 30 µM (inactive) | > 30 µM (inactive) | > 30 µM (inactive) | > 30 µM (inactive)
14 | N#CCNC(=O)c1ccc(-c2ccnc(Nc3ccc(N4CCOCC4)cc3)n2)cc1 [MOMELOTINIB] | > 30 µM (inactive) | > 30 µM (inactive) |  | > 30 µM (inactive) | > 30 µM (inactive) | > 30 µM (inactive) | > 30 µM (inactive) |  | > 30 µM (inactive)
15 | CC1(C)CNc2cc(NC(=O)c3cccnc3NCc3ccncc3)ccc21 [MOTESANIB] | > 30 µM (inactive) | > 30 µM (inactive) | > 30 µM (inactive) |  |  | > 30 µM (inactive) |  |  | 
16 | CN(c1ncccc1CNc1nc(Nc2ccc3c(c2)CC(=O)N3)ncc1C(F)(F)F)S(C)(=O)=O [PF-00562271] | > 30 µM (inactive) | > 30 µM (inactive) | > 30 µM (inactive) | > 30 µM (inactive) | > 30 µM (inactive) | > 30 µM (inactive) |  |  | 
17 | C=CC(=O)Nc1cccc(Nc2nc(Nc3ccc(N4CCN(C(C)=O)CC4)cc3OC)ncc2C(F)(F)F)c1 [ROCILETINIB] | > 30 µM (inactive) |  | > 30 µM (inactive) | > 30 µM (inactive) |  | > 30 µM (inactive) | > 30 µM (inactive) | > 30 µM (inactive) | > 30 µM (inactive)
18 | Cn1cnc2c(F)c(Nc3ccc(Br)cc3Cl)c(C(=O)NOCCO)cc21 [SELUMETINIB] | > 30 µM (inactive) | > 30 µM (inactive) | > 30 µM (inactive) |  |  | > 30 µM (inactive) |  |  | 
19 | CC(C)(O)CC(=O)NCCn1ccc2ncnc(Nc3ccc(Oc4cccc(C(F)(F)F)c4)c(Cl)c3)c21 [TAK-285] | > 30 µM (inactive) |  | > 30 µM (inactive) |  |  | > 30 µM (inactive) | > 30 µM (inactive) | > 30 µM (inactive) | > 30 µM (inactive)
20 | COc1cc2c(N3CCN(C(=O)Nc4ccc(OC(C)C)cc4)CC3)ncnc2cc1OCCCN1CCCCC1 [TANDUTINIB] | 0.01 µM | > 30 µM (inactive) | > 30 µM (inactive) |  |  |  |  |  | 
21 | O[C@H]1CC[C@H](Nc2ncc3nc(Nc4c(F)cc(F)cc4F)n([C@H]4CCOC4)c3n2)CC1 [TANZISERTIB] | > 30 µM (inactive) | > 30 µM (inactive) | > 30 µM (inactive) | > 30 µM (inactive) | > 30 µM (inactive) | > 30 µM (inactive) | > 30 µM (inactive) |  | > 30 µM (inactive)
22 | NC(=O)c1ccc(N(C(N)=O)c2c(F)cccc2F)nc1-c1ccc(F)cc1F [VX-702] | > 30 µM (inactive) | > 30 µM (inactive) | > 30 µM (inactive) | > 30 µM (inactive) | > 30 µM (inactive) | > 30 µM (inactive) | > 30 µM (inactive) |  | > 30 µM (inactive)
23 | COc1cc2ncnc(Nc3ccc(O)cc3)c2cc1OC [WHI-P131] | > 30 µM (inactive) |  | > 30 µM (inactive) | > 30 µM (inactive) |  | > 30 µM (inactive) | > 30 µM (inactive) | > 30 µM (inactive) | > 30 µM (inactive)
